Consider 11 compounds from publication PMC6155649 (Molecules : A Journal of Synthetic Chemistry and Natural …, 2017).

The test system of series [1] is P. falciparum Dd2. Kind of series: tritiated hypoxanthine incorporation growth inhibition assay. Type of series: cell-based. To be noted: P. falciparum Dd2, tritiated hypoxanthine incorporation method, mean value. How it is done:
(§1) The protocols are described in the experimental section. Two protocols to measure the growth inhibition were used: the tritiated hypoxanthine incorporation method and the SYBRgreen method. This was due to the fact that the radioactive assay was abandoned in the laboratory due to cost issues related to radioactive waste disposal. […] All data are mean values from one to four independent experiments, each consisting of eight drug concentrations in duplicate.
The IC50 values were determined using standard in vitro proliferation assays. […] The amount of radioactivity in precipitable material served as an index of parasite proliferation.

Series [2] relates to human lung MRC-5 fibroblasts. Kind of series: cytotoxicity, Alamar Blue (resazurin) assay. The conditions noted are these: human MRC-5 fibroblasts, 3 days incubation. How it is done:
All compounds were tested for cytotoxicity on human lung MRC-5 fibroblasts using the Alamar Blue assay (Table 1 and Table 2).
MRC-5SV2 cells are cultured in Earls MEM +5% FCSi. […] After 3 days incubation, cell viability is assessed fluorimetrically after addition of resazurin and fluorescence is measured (λex 550 nm, λem 590 nm). The results are expressed as % reduction in cell growth/viability compared to untreated control wells and CC50 is determined.
A general note: Resazurin is reduced to fluorescent resorufin, in cell work by metabolically active cells.

Series [3] has as its system P. falciparum Dd2. Kind of series: SYBRgreen growth inhibition assay. The series is classed as cell-based. To be noted: read-out: IC50 (nM) ± SD (n). How it is done:
as §1
Parasite replication was assessed by fluorescent SYBRgreen staining of parasitic DNA [60] as previously described. IC50 values were calculated using SigmaPlot.

The nature of series [4]: absorption spectrophotometric titrations versus pH (pKa). To be noted: for [LH+]pH5/[LH+]pH7.4: ratio of protonated species at pH 5 and 7.4, I = 0.1 M NaClO4, T = 25 °C; for pH of precipitation during the titration: H2O/DMSO, 91/1 v/v as printed, pKa could not be accurately evaluated. An excerpt: The HClO4 and NaOH solutions were freshly prepared just before use and titrated with sodium tetraborate decahydrate (B4Na2O7·10H2O, puriss, p.a, Fluka) and potassium hydrogen phthalate (C8H5KO3, Fluka, puriss, p.a.), respectively, using methyl orange (RAL) and phenolphthalein (Prolabo, purum) as the indicators. The GLEE program was applied for the glass electrode calibration (standard electrode potential E0/mV and slope of the electrode/mV pH^−1) and to check carbonate levels of the NaOH solutions used (<5%). The cell was thermostated at 25.0 ± 0.2 °C by the flow of a Lauda E200 thermostat. A stream of argon, pre-saturated with water vapour, was passed over the surface of the solution.
The spectrophotometric data were analyzed with the Specfit program which adjusts the absorptivities and the stability constants of the species formed at equilibrium. Specfit uses factor analysis to reduce the absorbance matrix and to extract the eigenvalues prior to the multiwavelength fit of the reduced data set according to the Marquardt algorithm.

The mark [5] stands for this setting: P. falciparum Dd2, SYBRgreen method, 72 h.
[6] abbreviates: 0.1 M NaClO4 in water/DMSO (91:9 v/v).
The mark [7] stands for this setting: Plasmodium falciparum, P. falciparum Dd2, SYBRgreen method, 72 h.
Setting [8] is: Plasmodium falciparum, DD2, 72 h.

In general, IC50 refers to the point on the concentration scale where inhibition reaches its midpoint. “2-(4′-nitro-Butyl-biphenyl-4-ylmethyl)-3-methyl-[1,4]naphthoquinone [Compound 28]”: the IC50 in series [1] was 474 nM. Besides, the “Tox/MRC-5” value in series [2] is more than 64.0 µM.

For “2-Methyl-3-(2-bromo-benzyl)-4a,8a-dihydro-[1,4]naphthoquinone [Compound 25a]”, the IC50 in series [3] (setting [5]) turned out to be 86.3 nM. Besides, in series [2], the “Tox/MRC-5” value was more than 64.0 µM.

Consider “2-Methyl-3-(3-bromo-benzyl)-4a,8a-dihydro-[1,4]naphthoquinone [Compound 25b]”, for which the IC50 in series [3] (setting [5]) is 128 nM. In series [2], the “Tox/MRC-5” value turned out to be 20.8 µM.

As for `CC1=C(Cc2ccc(N(C)C)cc2)C(=O)c2ccccc2C1=O` [Compound 3, 2-(4-(Dimethylamino)benzyl)-3-methylnaphthalene-1,4-dione], in series [4] (setting [6]), the pKa amounted to 4.87 ± 0.03. In addition, the “[LH+]pH5/[LH+]pH7.4” value in series [4] (Water/DMSO (0.91/0.09 v/v)) is given as 144.7. In addition, the IC50 in series [3] (setting [7]) was found to be 567 ± 217 nM. For the same compound, in series [2], the “Tox/MRC-5” value was more than 64.0 µM.

With `CC1=C(Cc2ccc(N)cc2)C(=O)c2ccccc2C1=O` [Compound 7, 2-(4-Aminobenzyl)-3-methylnaphthalene-1,4-dione], in series [4] (Water), the “[LH+]pH5/[LH+]pH7.4” value amounted to 162.5. The compound also gave a pKa in series [4] (water with 0.1 M NaClO4) of 4.74 ± 0.05. In addition, in series [3] (setting [7]), the IC50 came to 303 ± 138 nM. Moreover, the “Tox/MRC-5” value in series [2] is given as more than 64.0 µM.

Regarding `CC(=O)Nc1ccc(CC2=C(C)C(=O)c3ccccc3C2=O)cc1` [Compound 9, N-(4-((3-Methyl-1,4-dioxo-1,4-dihydronaphthalen-2-yl)methyl)phenyl)acetamide], the concentration for half-maximal inhibition (IC50) in series [3] (setting [8]) turned out to be 411 ± 220 nM.

In series [4] (setting [6]), `CCN(CC)c1ccc(CC2=C(C)C(=O)c3ccccc3C2=O)cc1` [Compound 11, 2-(4-(Diethylamino)benzyl)-3-methylnaphthalene-1,4-dione] displayed a pKa of 5.07 ± 0.06. Further, the “[LH+]pH5/[LH+]pH7.4” value in series [4] (Water/DMSO (0.91/0.09 v/v)) is 112.0. The concentration for half-maximal inhibition (IC50) in series [3] (setting [7]) was determined as 2060 ± 1070 nM. In series [2], the “Tox/MRC-5” value is 29.3 µM.

On to `CC(=O)Nc1cccc(CC2=C(C)C(=O)c3ccccc3C2=O)c1` [Compound 16, N-(3-((3-Methyl-1,4-dioxo-1,4-dihydronaphthalen-2-yl)methyl)phenyl)acetamide], for which the half-inhibitory concentration (IC50) in series [3] (setting [8]) stood at 310 ± 134 nM.

In series [4] (setting [6]), `CC1=C(Cc2cccc(N(C)C)c2)C(=O)c2ccccc2C1=O` [Compound 18, 2-(3-(Dimethylamino)benzyl)-3-methylnaphthalene-1,4-dione] displayed a pKa of 4.6 ± 0.04. Also, in series [4] (Water/DMSO (0.91/0.09 v/v)), the “[LH+]pH5/[LH+]pH7.4” value was determined as 179.9. The IC50 in series [3] (setting [7]) was found to be 386 ± 151 nM. Also, the “Tox/MRC-5” value in series [2] is reported as more than 64.0 µM.

As for `CCN(CC)c1cccc(CC2=C(C)C(=O)c3ccccc3C2=O)c1` [Compound 19, 2-(3-(Diethylamino)benzyl)-3-methylnaphthalene-1,4-dione], the pKa in series [4] (setting [6]) fell in the range of 5 to 5.5. Further, the “pH of precipitation during the titration” value in series [4] is reported as ~ 5. Besides, the IC50 in series [3] (setting [7]) was 236 ± 97 nM. Besides, the “Tox/MRC-5” value in series [2] is recorded as more than 64.0 µM.

On to “para-N-ethyl-3-benzylmenadione [Compound 10]”, for which, in series [4], the “pKa ± σ” value was 5–5.5 and the “pH of precipitation during the titration” value is ~ 5. The IC50 in series [3] (setting [5]) came out at 418 ± 166 nM. Besides, the “Tox/MRC-5” value in series [2] is listed as more than 64.0 µM.
